Test results taken from patent US20170112866A1, “ANTI-TUMOR AGENT CONTAINING TAXANE COMPOUND, AND ANTI-TUMOR EFFECT ENHANCER” (Taiho Pharmaceutical Company Limited, priority 2014, published 2017).

Tests used:
[1] = system: human gastric cancer cell line (SC-2); assay: Anti-tumor effect on SC-2 transplanted to nude mice (RTV, IR); type: in vivo; conditions: Day 29, tail vein, Day 1 and Day 8
Description: The FTD•TPI combination drug (a mixture of FTD and TPI at a molar ratio of 1:0.5) was prepared for administration at a dose of 150 mg/kg/day in terms of FTD. Paclitaxel (TXL, Wako Pure Chemical Industries, Ltd.) was prepared for administration at doses of 5 and 20 mg/kg/day. The FTD•TPI combination drug was orally administered on Days 1 to 14 consecutively, and paclitaxel was administered through the tail vein on Day 1 and Day 8. In the combination administration groups, the doses and administration schedules of the FTD•TPI combination drug and paclitaxel were the same as those of the corresponding monotherapy groups.
As an index of the anti-tumor effect, the TVs on Days 3, 7, 12, 15, 19, 22, 26, and 29 were calculated in each group. In accordance with the following equation, the relative tumor volume (RTV) to that on Day 0 was calculated and compared with the RTV of the untreated group (control).
TV (mm^3)=(long diameter×short diameter^2)/2
RTV=(TV on Day 29)/(TV on Day 0)
The RTVs were plotted on the indicated measurement days, and RTV changes over days in the control group, the FTD•TPI combination drug administration group, the paclitaxel administration group, and the combination administration group of the FTD•TPI combination drug and paclitaxel were compared.
The tumor growth inhibition rate (IR) on Day 29 on the basis of RTV values was calculated in accordance with the following equation.
IR (%)=[1−(mean RTV value of treated group)/(mean RTV value of control group)]×100

[2] = mouse, in vivo
Description: (§1) A human gastric cancer cell line (SC-2) was transplanted to the right chest of 5 to 6-week-old BALB/cA Jcl-nu mice. After the tumor transplantation, the long diameter (mm) and the short diameter (mm) of the tumor were measured, and the tumor volume (TV) was calculated. […] Paclitaxel was administered at doses of 10, 20, and 30 mg/kg/day on Days 1 and 8.

[3] = Paclitaxel dose finding in SC-2-bearing mice (Reference Example 2); conditions: doses 10, 20, 30 mg/kg/day on Days 1 and 8 tested
Description: as §1

CC(=O)O[C@H]1C(=O)[C@@]2(C)[C@H]([C@H](OC(=O)c3ccccc3)[C@]3(O)C[C@H](OC(=O)[C@H](O)[C@@H](NC(=O)c4ccccc4)c4ccccc4)C(C)=C1C3(C)C)[C@]1(OC(C)=O)CO[C@@H]1C[C@@H]2O [Paclitaxel (TXL), (−)-(1S,2S,3R,4S,5R,7S,8S,10R,13S)-4,10-diacetoxy-2-benzoyloxy-5,20-epoxy-1,7-dihydroxy-9-oxotax-11-en-13-yl(2R,3S)-3-benzoylamino-2-hydroxy-3-phenylpropionate]
IR (tumor growth inhibition rate) ([1]; paclitaxel 5 mg/kg/day): 27.1% | RTV (mean ± SD) ([1]; paclitaxel 5 mg/kg/day): 44.97 ± 1.78 | IR (tumor growth inhibition rate) ([1]; paclitaxel 20 mg/kg/day): 83.6% | RTV (mean ± SD) ([1]; paclitaxel 20 mg/kg/day): 10.13 ± 2.94 | mice deceased [2]: four of the six mice deceased | recommended dose for mice [3]: 20 mg/kg/day
